# Measured values: publication PMC5532403, “Potential for a novel manganese porphyrin compound as adjuvant canine lymphoma therapy” (Cancer Chemotherapy and Pharmacology, 2017)
# “And” between values parts separate entries of the source, which are not always exact repeats. Equal entries are not always repeated. “Also recorded” adds a separate entry of the source. Where two headings read alike, the source gives them in different places.
# Key:
# [1] = Single-dose pharmacokinetic study, plasma MnBuOE by LC-MS/MS; format: in vivo, dog
# Description: Intravenous catheters were placed in the jugular vein of each dog under heavy sedation (dexmedetomidine, 500 mcg/m^2) 24-h prior to initiation of the pharmacokinetic study to facilitate blood sampling. Baseline pulse and blood pressure (Cardell Vet Monitor 9401 Blood Pressure Monitor) were recorded prior administration of MnBuOE. MnBuOE (5.64 mg/mL) was injected subcutaneously in the dorsal intrascapular region. Following injection, 3–6 mL of blood was collected after 10 min, 30 min, 1 h, 2 h, 4 h, 6 h, 8 h, 24 h, 48 h, 72 h, 7 days, and 14 days into lithium heparin tubes (Vacutainer, 1.3 mL). Whole blood was centrifuged at 1500×g for 20 min, and plasma was collected and stored in 1% citric acid at −80 °C.
# Relevant PK parameters (e.g. C max, T max, AUC, clearance, t 1/2) were obtained by compartmental and non-compartmental modules within WinNonlin v. Plasma MnBuOE levels peaked at 30 min post-injection with a mean concentration of 3.993 μM (Fig. 2a), followed by a complex tissue distribution profile (non-linear trace in log-linear plot) within first 6 h post injection (Fig. 2a). […] Compartmental (first-order absorption—2 compartment model) calculations including 0–48 h data were performed on the averaged PK profile for the purpose of obtaining PK parameters needed for the simulation of the multi-dose regimen.
# normal dogs [2] = assay: Maximally tolerated dose / single-dose safety monitoring (pulse, blood pressure, drug reactions); format: in vivo, dog; details: for average heart rate at peak: 1 h after injection
# Description: (§1) Safety was assessed by evaluation of standard physical and laboratory parameters of systemic health. A full physical examination was performed prior to initiation of the study and on each treatment and sampling day. Indirect blood pressure monitoring was performed using Cardell Vet Monitor 9401 Blood Pressure Monitor. Pulse was quantified as heart beats per minute according to manual counts, as well as quantified with a blood pressure monitor. There was good correlation between pulse rates counted with manual methods compared to the blood pressure monitor (Figure S1). Standard laboratory assessments (complete blood cell count, biochemistry panel, urinalysis) were repeated throughout the phases of the study to assess systemic health.
# Thus, 1 mg/kg was selected as a safe initial dose for the MTD and single-dose PK studies in this work.
# [3] = Multiple dose pharmacokinetic study, plasma MnBuOE; format: in vivo, dog
# Description: MnBuOE was administered at 0.25 mg/kg Monday, Wednesday, and Friday (MWF). Dogs were treated concurrently with diphenhydramine (2 mg/kg every 12 h), famotidine (0.5 mg/kg every 12 h), and prednisone (1 mg/kg every 12 h) throughout these studies. Blood/plasma was collected at two time points: 1 h post dose (expected high levels but “safely” away the peak at C max = 0.5 h) and just prior to injection (trough level). The results are presented on Fig. 4a. As expected, the trough levels measured were very low. […] This would imply that no change in the expected mild acute side effects should be observed. […] The change in pulse increased over time for both treatment week and day of the week. Baseline pulse prior to injection was not altered with multiple doses of MnBuOE.
# normal dogs [4] = assay: Laboratory health assessments (complete blood cell count, biochemistry panel, urinalysis); format: in vivo, dog
# Description: as §1
# normal dogs [5] = assay: Histopathologic evaluation of necropsy tissues; format: in vivo, dog; details: 0.25 mg/kg Mon/Wed/Fri five doses
# Description: Tissue samples collected at necropsy were stored in 10% neutral buffered formalin, paraffin embedded, sectioned, and stained with hematoxylin and eosin. Histopathologic evaluations of the tissues were performed by a veterinary pathologist (KGB).
# normal dogs [6] = assay: Pulse monitoring in multiple dose study; format: in vivo, dog; details: 0.25 mg/kg sc Mon/Wed/Fri
# Description: as §1
# mice = test system: mice; set-up: method as in PMID 27098749; details: sc every 3 days for 5 weeks; cited from earlier work
# nonhuman primates = test system: nonhuman primates; set-up: method as in PMID 27098749; details: sc every 3 days for 5 weeks; cited from earlier work
# [7] = mice, cited from earlier work
# [8] = set-up: method as in unpublished data; details: rats, 1 mg/kg; ref unpublished data; cited from earlier work
# [9] = set-up: method as in PMID 27098749; details: non-human primates, 1 mg/kg; cited from earlier work
# [10] = test system: murine lymphoma cell lines; set-up: method as in PMID 19549914, PMID 25725417; details: in vitro; cited from earlier work
# [11] = test system: primary human lymphoma samples; set-up: method as in PMID 19549914, PMID 25725417; details: ex vivo; cited from earlier work
# [12] = set-up: method as in PMID 26496207; details: cited from earlier work
# [13] = single 1 mg/kg sc, first order absorption two compartments
# [14] = single 1 mg/kg sc, non-compartmental
# [15] = 0.25 mg/kg sc Mon/Wed/Fri for 3 weeks, 1 h post-injection
# [16] = 3 weeks post 0.25 mg/kg Mon/Wed/Fri, concurrent oral medications
smiles,measurement,setting,value
"CCCCOCC[n+]1ccccc1-c1c2nc(c(-c3cccc[n+]3CCOCCCC)c3ccc([n-]3)c(-c3cccc[n+]3CCOCCCC)c3nc(c(-c4cccc[n+]4CCOCCCC)c4ccc1[n-]4)C=C3)C=C2.[Mn+3] [MnBuOE, Mn(III) meso-tetrakis (N-n-butoxyetylpyridium-2-yl) porphyrin]","plasma half-life t 1/2, primary elimination from central compartment","[1]; single 1 mg/kg sc, 6 to 48 h",7 h
same,Cmax,"[1]; single 1 mg/kg sc, 30 min post-injection, 1 mg/kg, read-out: peak plasma concentration (C max), mean",3990 nM and 4000 nM
same,estimated terminal half-life (secondary processes),"[1]; single 1 mg/kg sc, 48 h to 14 days",480 h
same,MnBuOE remaining in plasma,"[1]; single 1 mg/kg sc, at 48 h",1%
same,time of peak plasma drug concentration (T max),"[1]; single 1 mg/kg sc, post-injection",0.5 h
same,AUCinfinite,[1]; [13],42.52
same,C max,[1]; [13],4830 ng/mL
same,CL/F,[1]; [13],0.02 L/h/kg body weight
same,V/F (4–48 h process),[1]; [13],0.14 L/kg body weight
same,t 1/2 (4–48 h),[1]; [13],6.64 h
same,t max,"[1]; single 1 mg/kg sc, first order absorption two compartments, averaged profile 0–48 h",0.46 h
same,AUC0–48h,[1]; [14],52.09
same,AUCinfinite,[1]; [14],57.82
same,C max,[1]; [14],5000 ng/mL
same,CL/F,[1]; [14],0.020 L/h/kg body weight
same,V/F (4–48 h process),[1]; [14],0.21 L/kg body weight
same,V/F (7–14 day process),[1]; [14],13.42 L/kg body weight
same,t 1/2 (4–48 h),[1]; [14],7.13 h
same,t 1/2 (7–14 day),[1]; [14],509.8 h
same,t max,"[1]; single 1 mg/kg sc, non-compartmental (WinNonlin), individual dogs",0.5 h
same,drug eliminated from the plasma,"[1]; single-dose 14-day PK study, after 48 h",99%
same,heart rate following injection,normal dogs [2]; 0.25 mg/kg sc,104–116 beats per minute
same,pulse 24 h post-injection,normal dogs [2]; 0.25 mg/kg sc,did not alter pulse rate 24 h post-injection; also recorded: normalized by 24 h
same,tachycardia grade,normal dogs [2]; 0.25 mg/kg sc,did not induce a clinical tachycardia; also recorded: mild increase in heart rate
same,anaphylactic or local drug reactions,normal dogs [2]; 0.25 mg/kg sc with premedication,No anaphylactic or local drug reactions were observed
same,local drug reaction at the injection site,normal dogs [2]; 0.5 mg/kg sc,No local drug reaction at the injection site was noted
same,pulse 24 h post-injection,normal dogs [2]; 0.5 mg/kg sc,remained slightly increased
same,tachycardia grade,normal dogs [2]; 0.5 mg/kg sc,mild to moderate tachycardia
same,average heart rate at peak,"normal dogs [2]; 0.5 mg/kg sc, one dog",144 beats per minute
same,anaphylactic reaction,"normal dogs [2]; 0.5 mg/kg sc, one dog, pre-administration of diphenhydramine, famotidine, prednisone",did not occur
same,blood pressure change with tachycardia,normal dogs [2]; 1 mg/kg sc,not associated with changes in blood pressure
same,local drug reactions in the subcutaneous site of injection,normal dogs [2]; 1 mg/kg sc,occurred with two of the dogs
same,persistence of tachycardia,normal dogs [2]; 1 mg/kg sc,at least 6 h
same,pulse 24 h post-injection,normal dogs [2]; 1 mg/kg sc,remained increased compared to resting heart rates
same,tachycardia grade,normal dogs [2]; 1 mg/kg sc,severe sinus tachycardia
same,average heart rate at peak,normal dogs [2]; 1 mg/kg sc,210 beats per minute
same,time to development of acute anaphylactic drug reaction,"normal dogs [2]; 1 mg/kg sc, following injection",15 to 20 min
same,acute drug reaction,"normal dogs [2]; 1 mg/kg sc, no premedication",acute anaphylactic drug reaction; also recorded: induced an anaphylactic drug reaction
same,maximum tolerated dose (MTD),"normal dogs [2]; sc, dogs, with premedication (anti-histamines, steroids)",0.25 mg/kg
same,indirect blood pressure after single dose,"normal dogs [2]; single sc dose, Supplemental Fig. 2",subclinical fluctuations in recorded indirect blood pressures
same,plasma MnBuOE concentration following the initial dose,[3]; [15],1.4 µM
same,plasma MnBuOE concentration plateau with subsequent doses,[3]; [15],0.85 to 1.1 µM
same,trough plasma levels,"[3]; 0.25 mg/kg sc Mon/Wed/Fri, just prior to injection",very low
same,accumulation of the drug in plasma,"[3]; 0.25 mg/kg sc Mon/Wed/Fri, long-term treatment",no accumulation of the drug in plasma was observed; also recorded: no accumulation observed over time
same,Urinalysis,normal dogs [4]; 3 weeks post 0.25 mg/kg Mon/Wed/Fri,Alkaline urine (pH = 9) (n = 2/3)
same,Complete blood cell count,"normal dogs [4]; 3 weeks post 0.25 mg/kg Mon/Wed/Fri, concurrent diphenhydramine, famotidine, prednisone",Stress leukogram (exogenous glucocorticoids) (n = 3/3)
same,Chemistry panel: acid-base finding,normal dogs [4]; [16],Slight to mild metabolic acidosis (increased anion gap)
same,Chemistry panel: cholesterol finding,normal dogs [4]; [16],Mild hypocholesterolemia
same,Chemistry panel: liver enzyme finding,normal dogs [4]; [16],"Mildly increased liver enzyme activity (ALP, ALT)"
same,Chemistry panel,normal dogs [4]; 48 h post 0.25 mg/kg,No remarkable changes in serum biochemistries were seen; also recorded: Unremarkable
same,Complete blood cell count,normal dogs [4]; 48 h post 0.25 mg/kg,Unremarkable
same,Urinalysis,"normal dogs [4]; 48 h post 0.25 mg/kg, one dog analyzed",Alkaline urine (pH = 9) (n = 1/1)
same,Chemistry panel,normal dogs [4]; 48 h post 1 mg/kg,Unremarkable
same,Complete blood cell count,normal dogs [4]; 48 h post 1 mg/kg,Unremarkable
same,Urinalysis,normal dogs [4]; 48 h post 1 mg/kg,Alkaline urine (pH = 9) (n = 2/3)
same,mean anion gap,"normal dogs [4]; final day of 3-week 0.25 mg/kg study, reference range 11.2–19.9",21.5
same,mean ALT,"normal dogs [4]; final day of 3-week 0.25 mg/kg study, reference range 12–54 IU/L",133 IU/L
same,mean ALP,"normal dogs [4]; final day of 3-week 0.25 mg/kg study, reference range 16–140 IU/L",203 IU/L
same,mean cholesterol,"normal dogs [4]; final day of 3-week 0.25 mg/kg study, reference range 124–344 mg/dL",96 mg/dL
same,"Characteristics of lesion, kidney",normal dogs [5]; necropsy,"Acute, multifocal, mild Acute multifocal, moderate"
same,"Characteristics of lesion, liver",normal dogs [5]; necropsy,"Marked, multifocal to diffuse, random Marked, multifocal to diffuse, centrilobular to random Marked, diffuse, panlobular, random"
same,"Characteristics of lesion, lung",normal dogs [5]; necropsy,"Multifocal, mild, neutrophilic, sterile Multifocal, moderate, neutrophilic sterile"
same,"Characteristics of lesion, subcutaneous adipose",normal dogs [5]; necropsy,"Multifocal, mild"
same,"Histopathologic appearance, lymph nodes",normal dogs [5]; necropsy,mildly reactive
same,"Incidence of diagnosis, kidney",normal dogs [5]; necropsy,n = 3/3
same,"Incidence of diagnosis, liver",normal dogs [5]; necropsy,n = 3/3
same,"Incidence of diagnosis, lung",normal dogs [5]; necropsy,n = 3/3
same,"Incidence of diagnosis, subcutaneous adipose",normal dogs [5]; necropsy,n = 3/3
same,"Histopathologic diagnosis, kidney",normal dogs [5]; necropsy 48 h after last dose,"acute, mild to moderate tubular degeneration and necrosis of the kidney"
same,"Histopathologic diagnosis, liver",normal dogs [5]; necropsy 48 h after last dose,marked hydropic degeneration of the liver
same,"Histopathologic diagnosis, lung",normal dogs [5]; necropsy 48 h after last dose,mild to moderate sterile bronchointerstitial/interstitial pneumonia
same,"Histopathologic diagnosis, subcutaneous adipose (injection site)",normal dogs [5]; necropsy 48 h after last dose,mild necrosupporative/granulomatous inflammation; also recorded: Necrosuppurative/granulomatous steatitis
same,heart rate 1 h after each injection,normal dogs [6],Mildly to moderately increased heart rate
same,baseline pulse prior to injection,normal dogs [6]; multiple doses,not altered
same,"no adverse effects level (NOAEL), loading dose",mice,12 mg/kg
same,"no adverse effects level (NOAEL), maintenance dose",mice,2 mg/kg
same,"no adverse effects level (NOAEL), loading dose",nonhuman primates,6 mg/kg
same,"no adverse effects level (NOAEL), maintenance dose",nonhuman primates,2 mg/kg
same,Cmax,"[7]; 1 mg/kg, ref unpublished data",1000 nM
same,Cmax,[7]; dose adjusted from 6 mg/kg,~300 nM
same,Cmax,[8],1000 nM
same,Cmax,[9],1600 nM
CC[n+]1ccccc1-c1c2nc(c(-c3cccc[n+]3CC)c3ccc([n-]3)c(-c3cccc[n+]3CC)c3nc(c(-c4cccc[n+]4CC)c4ccc1[n-]4)C=C3)C=C2.[Mn+3] [MnTE-2-PyP5+],effect on chemotherapeutic response,[10],enhanced the chemotherapeutic response
same,effect on chemotherapeutic response,[11],enhanced the chemotherapeutic response
same,"tissue accumulation, tumor compared to normal tissue",[12],accumulates preferentially in tumor tissue compared to normal tissue
